Values joined by “and” are separate entries in the source; they are usually repeats but may differ in a detail not shown here. Equal entries are not always repeated. Inconclusive results and toxic doses are left out. The calls were made as follows: active = survival T/C of 150% or more; inactive = T/C below 125% in these data.
System: P388 leukemia ip, CD2F1 mice, survival T/C
Assay: NCI In Vivo Anticancer Drug Screen. Data for tumor model P388 Leukemia (intraperitoneal) in CD2F1 (CDF1) mice
Details: endpoint: median survival time, higher = longer survival
How it was run: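 Mice carrying the transplanted tumor received test compound or vehicle. Survival was recorded in each group, and the value is the treated-group measurement divided by that of the vehicle-treated control group.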

[1] = dose: 12.5 mg/kg/injection, schedule: Q01DX009 (ip), vehicle: saline
[2] = dose: 25.0 mg/kg/injection, schedule: Q01DX009 (ip), vehicle: saline
[3] = dose: 50.0 mg/kg/injection, schedule: Q01DX009 (ip), vehicle: saline
[4] = dose: 100.0 mg/kg/injection, schedule: Q01DX009 (ip), vehicle: saline
[5] = dose: 200.0 mg/kg/injection, schedule: Q01DX009 (ip), vehicle: saline
[6] = dose: 100.0 mg/kg/injection, schedule: Q04DX002 (ip), vehicle: saline
[7] = dose: 200.0 mg/kg/injection, schedule: Q04DX002 (ip), vehicle: saline
[8] = dose: 50.0 mg/kg/injection, schedule: Q01DX005 (ip), vehicle: saline with Tween-80
[9] = dose: 50.0 mg/kg/injection, schedule: Q01DX005 (ip), vehicle: Klucel (hydroxypropylcellulose) (HPC)
[10] = dose: 100.0 mg/kg/injection, schedule: Q01DX005 (ip), vehicle: Klucel (hydroxypropylcellulose) (HPC)
[11] = dose: 200.0 mg/kg/injection, schedule: Q01DX005 (ip), vehicle: Klucel (hydroxypropylcellulose) (HPC)
[12] = dose: 60.0 mg/kg/injection, schedule: Q01DX005 (ip), vehicle: saline with Tween-80
[13] = dose: 120.0 mg/kg/injection, schedule: Q01DX005 (ip), vehicle: saline with Tween-80
[14] = dose: 240.0 mg/kg/injection, schedule: Q01DX005 (ip), vehicle: saline with Tween-80

Measured: T/C

CCCCCCCCC[N+]1([O-])CCCCCC1
inactive: [1] 100 % of control | [2] 99 % of control | [3] 105 % of control and 107 % of control

Cc1cn(C2CC(F)C(CO)O2)c(=O)[nH]c1=O (centres undefined)
inactive: [1] 106 % of control | [2] 101 % of control and 103 % of control | [3] 100 % of control and 110 % of control | [4] 101 % of control and 119 % of control | [5] 101 % of control | dose: 400.0 mg/kg/injection, schedule: Q01DX009 (ip), vehicle: saline 116 % of control

CCN(CC)C(=O)Nc1ccc(OCC(O)CNC(C)(C)C)c(C(C)=O)c1 (centres undefined)
inactive: dose: 50.0 mg/kg/injection, schedule: Q01DX009 (ip), vehicle: water 114 % of control | dose: 100.0 mg/kg/injection, schedule: Q01DX009 (ip), vehicle: water 102 % of control | dose: 200.0 mg/kg/injection, schedule: Q01DX009 (ip), vehicle: water 105 % of control

CC(=O)NC(C(=O)N1CCCC1)=C(C)C
inactive: [6] 100 % of control | [7] 98 % of control | dose: 400.0 mg/kg/injection, schedule: Q04DX002 (ip), vehicle: saline 107 % of control

CNC1c2ccccc2CCC1O (centres undefined)
inactive: dose: 100.0 mg/kg/injection, schedule: Q04DX002 (ip), vehicle: Klucel (hydroxypropylcellulose) (HPC) 100 % of control | dose: 200.0 mg/kg/injection, schedule: Q04DX002 (ip), vehicle: Klucel (hydroxypropylcellulose) (HPC) 96 % of control

N#CC1OC1c1cccnc1 (centres undefined)
inactive: dose: 12.5 mg/kg/injection, schedule: Q01DX005 (ip), vehicle: saline with Tween-80 105 % of control and 111 % of control | dose: 25.0 mg/kg/injection, schedule: Q01DX005 (ip), vehicle: saline with Tween-80 105 % of control and 106 % of control | [8] 121 % of control

OC(Cc1cnc2ccccc2n1)(C(F)(F)F)C(F)(F)F
inactive: dose: 100.0 mg/kg/injection, schedule: Q04DX003 (ip), vehicle: saline with Tween-80 109 % of control | dose: 200.0 mg/kg/injection, schedule: Q04DX003 (ip), vehicle: saline with Tween-80 95 % of control | dose: 400.0 mg/kg/injection, schedule: Q04DX003 (ip), vehicle: saline with Tween-80 90 % of control

C[C@H]1CCC2=C(C1)NC(N)=NC2(C)C
inactive: dose: 12.5 mg/kg/injection, schedule: Q04DX002 (ip), vehicle: saline with Tween-80 93 % of control | dose: 25.0 mg/kg/injection, schedule: Q04DX002 (ip), vehicle: saline with Tween-80 93 % of control | dose: 50.0 mg/kg/injection, schedule: Q04DX002 (ip), vehicle: saline with Tween-80 98 % of control

COc1c(C(C)C)cc2c(c1OC)C13CCCC(C)(C)C1C(OC3=O)C2NC(=O)C(C)N(C)C (centres undefined)
inactive: [1] 100 % of control | [2] 98 % of control | [3] 100 % of control

CC1(c2ccccn2)OCCO1
inactive: [3] 97 % of control | [4] 104 % of control | [5] 108 % of control

O=C(C[n+]1ccnc2ccccc21)c1ccc(Cl)cc1
inactive: [9] 95 % of control | [10] 100 % of control | [11] 106 % of control

Cc1nc(N)c2[nH]cnc2n1
inactive: [9] 99 % of control | [10] 100 % of control | [11] 99 % of control

BrCCCC1OCCO1
inactive: [12] 100 % of control | [13] 100 % of control | [14] 104 % of control

COc1cccc2c1C(=O)c1c(O)c3c(c(O)c1C2=O)CC1(O)CC3OC1(C)OC (centres undefined)
inactive: dose: 1.56 mg/kg/injection, schedule: Q01DX009 (ip), vehicle: other 104 % of control | dose: 3.13 mg/kg/injection, schedule: Q01DX009 (ip), vehicle: other 100 % of control | dose: 6.25 mg/kg/injection, schedule: Q01DX009 (ip), vehicle: other 96 % of control | dose: 12.5 mg/kg/injection, schedule: Q01DX009 (ip), vehicle: other 106 % of control | dose: 25.0 mg/kg/injection, schedule: Q01DX009 (ip), vehicle: other 106 % of control | dose: 25.0 mg/kg/injection, schedule: Q04DX003 (ip), vehicle: water 101 % of control | dose: 50.0 mg/kg/injection, schedule: Q04DX003 (ip), vehicle: water 100 % of control | dose: 100.0 mg/kg/injection, schedule: Q04DX003 (ip), vehicle: water 100 % of control | dose: 200.0 mg/kg/injection, schedule: Q04DX003 (ip), vehicle: water 103 % of control | dose: 400.0 mg/kg/injection, schedule: Q04DX003 (ip), vehicle: water 99 % of control

CCOC(=O)C(N=Nc1ccc(Br)c(C)c1)C(C)=O (centres undefined)
inactive: [8] 107 % of control | dose: 100.0 mg/kg/injection, schedule: Q01DX005 (ip), vehicle: saline with Tween-80 93 % of control | dose: 200.0 mg/kg/injection, schedule: Q01DX005 (ip), vehicle: saline with Tween-80 97 % of control

CCCCN1C(=O)/C(=C/c2ccco2)SC1=S
inactive: dose: 50.0 mg/kg/injection, schedule: Q01DX009 (ip), vehicle: saline with Tween-80 101 % of control | dose: 100.0 mg/kg/injection, schedule: Q01DX009 (ip), vehicle: saline with Tween-80 104 % of control | dose: 200.0 mg/kg/injection, schedule: Q01DX009 (ip), vehicle: saline with Tween-80 102 % of control

COc1ccc(/C=C(\C)[N+](=O)[O-])cc1OC
inactive: dose: 12.5 mg/kg/injection, schedule: Q01DX009 (ip), vehicle: distilled water + Tween-80 100 % of control | dose: 25.0 mg/kg/injection, schedule: Q01DX009 (ip), vehicle: distilled water + Tween-80 121 % of control | dose: 50.0 mg/kg/injection, schedule: Q01DX009 (ip), vehicle: distilled water + Tween-80 115 % of control | dose: 100.0 mg/kg/injection, schedule: Q01DX009 (ip), vehicle: distilled water + Tween-80 115 % of control

Oc1[nH]c2ccccc2c1N=NC(=S)SCc1ccccc1
inactive: [1] 89 % of control | [2] 87 % of control | [3] 90 % of control

O=C(O)CC(=O)C(=O)O
inactive: dose: 100.0 mg/kg/injection, schedule: Q04DX002 (ip), vehicle: saline with Tween-80 98 % of control | [6] 101 % of control | dose: 200.0 mg/kg/injection, schedule: Q04DX002 (ip), vehicle: saline with Tween-80 112 % of control | [7] 97 % of control | dose: 400.0 mg/kg/injection, schedule: Q04DX002 (ip), vehicle: saline with Tween-80 112 % of control

CCCCCCCCCC(=O)c1cc(O)c(C(=O)CCCCCCCCC)cc1O
inactive: dose: 60.0 mg/kg/injection, schedule: Q01DX005 (ip), vehicle: Klucel (hydroxypropylcellulose) (HPC) 103 % of control | dose: 120.0 mg/kg/injection, schedule: Q01DX005 (ip), vehicle: Klucel (hydroxypropylcellulose) (HPC) 104 % of control | dose: 240.0 mg/kg/injection, schedule: Q01DX005 (ip), vehicle: Klucel (hydroxypropylcellulose) (HPC) 105 % of control

O=C(OCCS(=O)(=O)CCOC(=O)ON1C(=O)CCC1=O)ON1C(=O)CCC1=O
inactive: [9] 109 % of control | [10] 109 % of control | [11] 115 % of control

COc1ccc(NC(=O)CCCC(=O)CC(=O)c2ccc(Cl)cc2)c(OC)c1
inactive: [12] 109 % of control | [13] 103 % of control | [14] 101 % of control

[Cl][Ge]([c]1ccccc1)[c]1ccccc1.c1cc[c]([GeH][c]2ccccc2)cc1
inactive: [9] 93 % of control | [10] 100 % of control | [11] 103 % of control

NC(N)=NN=c1/c(=N\N=C(N)N)c2cc3ccccc3cc2/c1=N/N=C(N)N
inactive: dose: 6.25 mg/kg/injection, schedule: Q01DX001 (ip), vehicle: saline 102 % of control | dose: 12.5 mg/kg/injection, schedule: Q01DX001 (ip), vehicle: saline 96 % of control | dose: 25.0 mg/kg/injection, schedule: Q01DX001 (ip), vehicle: saline 96 % of control and 97 % of control

From PubChem BioAssay AID330 (DTP/NCI, 2004)
